Biological target: T1, Sodium- and chloride-dependent glycine transporter 1 (Homo sapiens, UniProt P48067)
T1 sequence (P48067 whole entry): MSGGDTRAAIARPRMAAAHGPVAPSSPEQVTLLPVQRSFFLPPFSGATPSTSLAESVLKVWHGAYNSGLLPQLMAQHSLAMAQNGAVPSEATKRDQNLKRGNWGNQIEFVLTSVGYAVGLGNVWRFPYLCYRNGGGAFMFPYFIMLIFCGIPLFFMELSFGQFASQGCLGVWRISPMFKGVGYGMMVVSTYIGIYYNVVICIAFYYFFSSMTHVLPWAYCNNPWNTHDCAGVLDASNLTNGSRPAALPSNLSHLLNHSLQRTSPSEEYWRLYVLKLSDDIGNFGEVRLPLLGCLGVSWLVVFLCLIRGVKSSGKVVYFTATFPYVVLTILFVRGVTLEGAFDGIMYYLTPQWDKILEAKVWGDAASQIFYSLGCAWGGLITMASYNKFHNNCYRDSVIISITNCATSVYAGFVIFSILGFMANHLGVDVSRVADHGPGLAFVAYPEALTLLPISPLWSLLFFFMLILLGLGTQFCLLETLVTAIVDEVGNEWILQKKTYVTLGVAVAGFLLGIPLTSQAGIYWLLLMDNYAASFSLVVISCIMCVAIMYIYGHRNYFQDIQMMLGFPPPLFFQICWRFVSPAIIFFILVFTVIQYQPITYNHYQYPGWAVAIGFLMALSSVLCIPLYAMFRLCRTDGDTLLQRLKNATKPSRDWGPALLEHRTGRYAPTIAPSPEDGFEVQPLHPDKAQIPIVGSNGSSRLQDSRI
Assay: Radioligand Binding Assay: Radioligand binding to human GlyT1c transporter-expressing membranes was determined as described in Mezler et al., Molecular Pharmacology 74:1705-1715, 2008.

## Cn1cnc(S(=O)(=O)NCc2cc3c(cc2F)C[C@@H](N)[C@H]3Cc2ccccc2)c1 (relative stereo)
  Ki: < 10 nM
